For 4 compounds, Drug uptake results are on record in ChEMBL document CHEMBL1268811, “A retro-inverso TAT-like peptide designed to deliver cysteamine to cells” (Bioorg Med Chem Lett, 2010).

*1 amine or outer side, *2 acyl side, *3 side chain or, on linkers, in order; H or OH if unused. Where a SMILES comes first, the peptide text is derived from it. The star is where a group is joined. 5TAMRA = CN(C)c1ccc2c(c1)Oc1cc(N(C)C)ccc1C21OC(=O)c2cc(C(=O)*)ccc21; Cysteamine = C(CS[*:2])N[*:1]

The nature of this data set: Drug uptake in lysosomes of human HeLa cells transfected with Cerulean-Lamp-1 plasmid at 1 uM after 1 hr by fluorescence microscopy. It counts as ADME, cell-based, Lysosome.
`CN(C)c1ccc2c(c1)Oc1cc(N(C)C)ccc1C21OC(=O)c2cc(C(=O)N[C@@H](CCCNC(=N)N)C(=O)N[C@@H](CCCNC(=N)N)C(=O)N[C@@H](CCCNC(=N)N)C(=O)N[C@@H](CCC(N)=O)C(=O)N[C@@H](CCCNC(=N)N)C(=O)N[C@@H](CCCNC(=N)N)C(=O)N[C@@H](CS)C(=O)N[C@@H](CSSCCN)C(=O)N[C@@H](CCCNC(=N)N)C(=O)NCC(=O)N[C@@H](Cc3ccc(O)cc3)C(=O)O)ccc21` (5TAMRA-RRRQRRCC(Cysteamine)RGY-OH): the Drug uptake result was “Not Active”.
With `CN(C)c1ccc2c(c1)Oc1cc(N(C)C)ccc1C21OC(=O)c2cc(C(=O)N[C@@H](CCCNC(=N)N)C(=O)N[C@@H](CCCNC(=N)N)C(=O)N[C@@H](CCCNC(=N)N)C(=O)N[C@@H](CCC(N)=O)C(=O)N[C@@H](CCCNC(=N)N)C(=O)N[C@@H](CCCNC(=N)N)C(=O)N[C@@H](CSSCCN)C(=O)N[C@@H](CS)C(=O)N[C@@H](CCCNC(=N)N)C(=O)NCC(=O)N[C@@H](Cc3ccc(O)cc3)C(=O)O)ccc21` (5TAMRA-RRRQRRC(Cysteamine)CRGY-OH) the entry was “Not Active”; with `CN(C)c1ccc2c(c1)Oc1cc(N(C)C)ccc1C21OC(=O)c2cc(C(=O)N[C@@H](CCCNC(=N)N)C(=O)N[C@@H](CCCNC(=N)N)C(=O)N[C@@H](CCCNC(=N)N)C(=O)N[C@@H](CCC(N)=O)C(=O)N[C@@H](CCCNC(=N)N)C(=O)N[C@@H](CCCNC(=N)N)C(=O)N[C@@H](CSSCCN)C(=O)N[C@@H](CSSCCN)C(=O)N[C@@H](CCCNC(=N)N)C(=O)NCC(=O)N[C@@H](Cc3ccc(O)cc3)C(=O)O)ccc21` (5TAMRA-RRRQRRC(Cysteamine)C(Cysteamine)RGY-OH), “Active”.
The result for `CN(C)c1ccc2c(c1)Oc1cc(N(C)C)ccc1C21OC(=O)c2cc(C(=O)N[C@@H](CCCNC(=N)N)C(=O)N[C@@H](CCCNC(=N)N)C(=O)N[C@@H](CCCNC(=N)N)C(=O)N[C@@H](CCC(N)=O)C(=O)N[C@@H](CCCNC(=N)N)C(=O)N[C@@H](CCCNC(=N)N)C(=O)N[C@@H](CS)C(=O)N[C@@H](CS)C(=O)N[C@@H](CCCNC(=N)N)C(=O)NCC(=O)N[C@@H](Cc3ccc(O)cc3)C(=O)O)ccc21` (5TAMRA-RRRQRRCCRGY-OH) reads “Not Active”.
